The values that follow come from US5346897A, “Agents for potentiating the effects of antitumor agents and combating multiple drug resistance” (Burroughs Wellcome Co., priority 1992, dated 1994).

Where two headings read alike, the source gives them in different places. *1 amine or outer side, *2 acyl side, *3 side chain or, on linkers, in order; H or OH if unused. Where a SMILES comes first, the peptide text is derived from it. Bridges are numbered along the chain shown (N, C = ends). Roman numbers before positions name the chains, in order. [ ]: non-standard residue; d: D form. Actinocin(9to1) = Cc1c2oc3c(C)ccc(C(=O)[*:1])c3nc-2c(C(=O)[*:2])c(N)c1=O; NMeV = CN[C@H](C(=O)O)C(C)C; Sar = CNCC(=O)O

For data set [1], the system named is resistant sublines of murine leukemia cells. Particulars: Tsuruo et al., Cancer Res.; cited from earlier work.
The subject of data set [2] is C5S32 Chinese hamster ovary cells (drug resistant). Description: In vitro cytotoxicity of potentiating agents in Chinese hamster ovary cells, multidrug resistant C5S32 line, MTT. The data set is classed as cell-based. Particulars: 96 h, Act D alone = 1.00.
Test in data set [3]: as above
The data set is classed as cell-based. Particulars: hamster, c5s32 cho cells, C5S32 drug resistant, no Act D, untreated = 1.00, read-out: Normalized absorbance (cell survival), potentiating agent alone, fraction of untreated culture.

Data set [4] is described as follows: in vitro. To be noted: human, kb 3-1 cells.
Protocol: (§1) The procedure for assaying the cytotoxicity of potentiating agents with human KB epidermoid carcinoma cells is essentially the same as the assay procedure described above for use with Chinese hamster ovary cells. […] After 48 hours of incubation at 37° C., the media is changed and cells are treated with actinomycin D at 0.1 nM (3-1) or 20 nM (V-i). The test potentiating agent is introduced to one-half the untreated cultures and onehalf the Act D treated cultures at 1 and 10 μM. After 96 hours of additional incubation at 37° C, 0.5 mg/ml MTT dye is added, the cells are incubated for three hours, after which the cells are dissolved in DMSO, and the absorbance is then read at 570 nm.
Data set [5] can be described thus: In vitro cytotoxicity of potentiating agents in human KB epidermoid carcinoma cells, drug resistant KB V-1, MTT. Particulars: human, kb v-1 cells.
Protocol: as §1
Data set [6] deals with KB V-1 human epidermoid carcinoma cells (drug resistant). Described as above. To be noted: KB V-1 drug resistant, 96 h, Act D alone = 1.00.
Protocol: as §1
The nature of data set [7]: in vitro. The data set is classed as cell-based, Chinese hamster. To be noted: hamster, auxb1 cho cells.
The subject of data set [8] is AuxB1 Chinese hamster ovary cells (wildtype). Description: in vitro. The data set is classed as cell-based. Particulars: auxb1 cho cells, 96 h.
Data set [9] deals with KB 3-1 human epidermoid carcinoma cells (wildtype). Particulars: kb 3-1 cells, 96 h.
Protocol: as §1
Data set [10] relates to Chinese hamster ovary (CHO) tissue culture cells (AuxB1 and C5S32). Description: Cytotoxicity of Actinomycin D alone in Chinese hamster ovary cells (AuxB1 and C5S32). The data set is classed as cell-based.

Consider `COc1ccc(CCN(C)CCCC(C#N)(c2ccc(OC)c(OC)c2)C(C)C)cc1OC` (stereo not shown) [Verapamil], for which, in data set [1], the “enhancement of the activity of antitumor agents against resistant sublines of murine leukemia cells” value (from here on “enhancement”) was “enhance the activity of antitumor agents”.
With `COc1ccc([C@@H]2Sc3ccccc3N(CCN(C)C)C(=O)[C@@H]2OC(C)=O)cc1` [diltiazem], in data set [1], the “enhancement” value is listed as “enhance the activity of antitumor agents”.
With `CCOC(=O)/C=C/c1cccc(/C(=C/CN2CCCC2)c2ccc(C)cc2)n1` [Compound (B), Ethyl (E)-3-{6-[3-pyrrolidino-l-(4-tolyl)prop-lE-enyl]-2-pyridyl}acrylate], the “Normalized absorbance (cell survival), potentiating agent + Act D, fraction of Act D alone” value in data set [2] (potentiating agent 1 μM + Act D 0.5 μM) was found to be 0.63; in [2] (potentiating agent 10 μM + Act D 0.5 μM) it was 0.14; in [6] (potentiating agent 1 μM + actinomycin D 20 nM) it was 0.48; in data set [6] (potentiating agent 10 μM + actinomycin D 20 nM), 0.04; in data set [8] (1 µM), 0.63; in data set [8] (10 µM), 0.29. Besides, the figures for the “Normalized absorbance (cell survival), potentiating agent + Act D, fraction of Act D alone” value in [9] (1 µM) and in [9] (10 µM) were 0.55 and 0.45, respectively. For the same molecule, the viability at 96 h, 1 µM was 77% in data set [3] (potentiating agent 1 μM), 58% in data set [4], 36% in data set [5] and 92% in [7]. The viability at 96 h, 10 µM came out at 52% in data set [3] (potentiating agent 10 μM), 37% in data set [4], 14% in data set [5] and 93% in [7].
Take `C=C[C@H]1C[N@@]2CC[C@H]1C[C@@H]2[C@@H](O)c1ccnc2ccc(OC)cc12` [quinidine]: the “enhancement” value in data set [1] is on record as “enhance the activity of antitumor agents”.
`CN1CCN(CCCN2c3ccccc3Sc3ccc(C(F)(F)F)cc32)CC1` [trifluoperazine]: the “enhancement” value in data set [1] is “enhance the activity of antitumor agents”.
In the case of `Cc1c2oc3c(C)ccc(C(=O)N[C@@H]4C(=O)N[C@H](C(C)C)C(=O)N5CCC[C@H]5C(=O)N(C)CC(=O)N(C)[C@@H](C(C)C)C(=O)O[C@@H]4C)c3nc-2c(C(=O)N[C@@H]2C(=O)N[C@H](C(C)C)C(=O)N3CCC[C@H]3C(=O)N(C)CC(=O)N(C)[C@@H](C(C)C)C(=O)O[C@@H]2C)c(N)c1=O` [Actinomycin D] (I: T[dV]P[Sar][NMeV] / II: T[dV]P[Sar][NMeV]; ester I:1-I:C, II:1-II:C; linker I:N-II:N via Actinocin(9to1)), in data set [10] (Act D alone (0.01 μM AuxB1, 0.5 μM C5S32), in most experiments), the “reduction in cell number below the value of completely untreated cultures” value is 10-20%. Moreover, the “resistance of C5S32 cells to Actinomycin D compared to the parental AuxB1 cell line” value in [10] (C5S32 vs AuxB1) is recorded as “about 200 fold”.
With `COC(=O)C1=C(C)NC(C)=C(C(=O)OCCN(C)Cc2ccccc2)C1c1cccc([N+](=O)[O-])c1` (stereo not shown) [nicardipine], the “enhancement” value in data set [1] is reported as “enhance the activity of antitumor agents”.
For the molecule `CN(C)CCCN1c2ccccc2CCc2ccc(Cl)cc21` [clomipramine], in data set [1], the “enhancement” value is listed as “enhance the activity of antitumor agents”.
`CCN(CC)CCn1c(=O)c(Cc2ccc(OC)cc2)nc2ccccc21` [caroverine]: the “enhancement” value in data set [1] is given as “enhance the activity of antitumor agents”.
